Measured values from US10722489B2, “D-3-phosphoglycerate dehydrogenase allosteric inhibitor and use thereof” (Peking University, priority 2016, dated 2020).
One block for each compound: values may come before it.

What was measured:
[1] = target: recombinant PHGDH (Homo sapiens (Human), UniProt O43175); assay: In vitro enzymatic activity of PHGDH by fluorescence kinetic method; format: biochemical; conditions: recombinant PHGDH 30 ng/μL, NADH fluorescence at 456 nm
Protocol: The activity of recombinant PHGDH was measured by monitoring the reduced nicotinamideadenine dinucleotide (NADH) to nicotinamideadenine dinucleotide (NAD^+) change in fluorescence emission at 456 nm. PHGDH (final concentration of 30 ng/μL) was first pre-incubated with enzyme samples in the assay buffer (25 mM HEPES, pH 7.1, 400 mM KCl, 5 μM phosphopyridoxa (PLP), 0.5 mM α-ketoglutarate, 150 μM NADH, PSAT1) for 10 min in 96-well plate, then 10 μL of DMSO (control) or a small molecule of DMSO solution was added, shaken at 550 rpm for 5 minutes at 25° C. and balanced for 5 minutes. […] The reaction was started by adding L-phospho-O-serine (Pser) solution. The UV-visible microplate reader was used to monitor the change of NADH consumption at 456 nm with time. Protein activity was assessed by using an initial rate of reaction within 30 s, at which time NADH consumption was linear over time. The enzymatic inhibition ability of sixty-three compounds was first measured at 50 μM, compounds with percentage inhibition of PHGDH larger than 50% were selected for further studies, and IC50 values were obtained (Table 3).

[2] = system: MDA-MB-468 xenografts; assay: Mouse xenograft model, compounds injected separately; format: in vivo; conditions: 20 mg/kg/day IP; for inhibitory effects on MDA-MB-468 xenografts (tumor volume): after 30 days of drug delivery, vs vehicle; for tolerability (body weight): over the course of the experiments
Protocol: All animal experiments were performed in compliance with guidelines of the Animal Welfare Act and the guide for the care and use of laboratory animals following protocols approved by the Institutional Animals Care and Use Committee (IACUC). […] The tumor volumes were measured every two days and calculated by using the following formula width^2 (mm)×length (mm)×0.5.

[3] = system: PHGDH-insensitive breast cancer cells MDA-MB-231; assay: MTT cell viability assay, MDA-MB-231; format: cell-based; conditions: Homo sapiens, 72 h
Text: (§1) The biological activities of the compounds at the cellular level were investigated. A series of cancer cells and normal mammary epithelial cells were selected, and the experimental method of MTT (3-(4,5)-dimethylthiahiazo (-z-y 1)-3,5-di-phenytetrazoliumromide) was used.
(§2) The specific method: firstly, PHGDH-sensitive breast cancer cells MDA-MB-468 (5,000 cells/well) and HCC70 (5,000 cells/well), PHGDH-insensitive breast cancer cells MCF-7 (3,000 cells/well), MDA-MB-231 (2,000 cells/well) and ZR-75-1 (4,000 cells/well), colon cancer cell DLD-1 (2,000 cells/well) and normal breast epithelial cells MCF-10A (3,000 cells/well) in the exponential growth were plated into 96-well culture plates and treated in triplicate with or without various concentrations of activated compounds from the enzymatic bioassays. They adhered to the wall over night. The compounds were added from stock solutions in DMSO and the final concentration of DMSO in the medium was 0.2%. After 72 h, 20 μL 5 mg/ml MTT was added to each well and incubated for at least 4 h. […] The number of viable cells was assessed by spectrophotometry at 570 nm, and calculated as the percentage of absorbance of treated cells relative to that of solvent controls. Results were expressed as a percentage of viable cells and the EC50 was calculated by using the Hill equation.

[4] = system: PHGDH-insensitive breast cancer cells ZR-75-1; assay: MTT cell viability assay, ZR-75-1; format: cell-based; conditions: Homo sapiens, 72 h
Text: as §1, §2

[5] = system: colon cancer cell DLD-1; assay: MTT cell viability assay, DLD-1; format: cell-based; conditions: Homo sapiens, 72 h, colon cancer cells
Text: as §1, §2

[6] = system: MDA-MB-468 Cells; assay: Cell cycle analysis by PI staining and flow cytometry; format: cell-based; conditions: MDA-MB-468, 24 h, various concentrations
Protocol: MDA-MB-468 Cells (300,000 cells/well) in exponential growth were plated into 6-well culture plates and then treated in triplicate with or without various concentrations of PKUMDL-WL-2101. After 24 h, cells were harvested by trypsinization and centrifuged, and then fixed in 70% ice-cold ethanol, washed twice with 1×PBS, and kept at 4° C. overnight. The fixed cells were afterwards washed in 1×PBS and resuspended in 1×PBS containing 0.5% triton-x-100, 50 μg/ml Prodiumiodide (PI) and 50 μg/ml DNase-free RNase. The cell suspension was incubated in the dark for 30 min at 37° C. and analyzed by using a BD FACSCanto™ cytometer.

[7] = system: PHGDH-sensitive breast cancer cells MDA-MB-468; assay: MTT cell viability assay, MDA-MB-468; format: cell-based; conditions: Homo sapiens, 72 h
Text: as §1, §2

[8] = system: PHGDH-sensitive breast cancer cells HCC70; assay: MTT cell viability assay, HCC70; format: cell-based; conditions: Homo sapiens, 72 h
Text: as §1, §2

[9] = system: normal breast epithelial cells MCF-10A; assay: MTT cell viability assay, MCF-10A; format: cell-based; conditions: Homo sapiens, 72 h
Text: as §1, §2

[10] = system: PHGDH-insensitive breast cancer cells MCF-7; assay: MTT cell viability assay, MCF-7; format: cell-based; conditions: Homo sapiens, MCF7, 72 h
Text: as §1, §2

recombinant PHGDH, sequence (O43175 whole entry): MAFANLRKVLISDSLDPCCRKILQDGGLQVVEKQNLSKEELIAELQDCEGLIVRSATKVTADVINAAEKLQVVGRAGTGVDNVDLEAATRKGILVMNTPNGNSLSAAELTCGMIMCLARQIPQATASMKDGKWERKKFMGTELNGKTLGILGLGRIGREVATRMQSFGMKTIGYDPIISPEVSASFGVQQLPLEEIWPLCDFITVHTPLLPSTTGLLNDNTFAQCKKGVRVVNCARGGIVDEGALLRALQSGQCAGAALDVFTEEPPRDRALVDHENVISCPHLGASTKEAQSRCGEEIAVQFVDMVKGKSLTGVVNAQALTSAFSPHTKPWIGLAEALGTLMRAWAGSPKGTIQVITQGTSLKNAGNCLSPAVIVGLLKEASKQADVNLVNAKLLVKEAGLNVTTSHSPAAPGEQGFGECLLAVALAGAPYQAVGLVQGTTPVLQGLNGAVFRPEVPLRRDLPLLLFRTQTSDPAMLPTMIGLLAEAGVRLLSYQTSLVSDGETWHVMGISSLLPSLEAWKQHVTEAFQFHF

SMILES: O=C(N/N=C/c1cc([N+](=O)[O-])ccc1O)c1ccc(C(F)(F)F)cc1 [PKUMDL-WL-2128]
IC50 [1]: 36.1 ± 4.2 µM

SMILES: O=C(N/N=C/c1cc([N+](=O)[O-])ccc1O)c1ccc(O)cc1O [PKUMDL-WL-2101, (E)-2,4-dihydroxy-N′-(2-hydroxy-5-nitrobenzylidene)benzohydrazide]
inhibitory effects on MDA-MB-468 xenografts (tumor volume) [2]: substantial inhibitory effects
tolerability (body weight) [2]: maintain normal body weight
EC50 [3]: 27.7 µM
EC50 [4]: 83.4 µM
IC50 [1]: 34.8 ± 3.6 µM
EC50 [5]: 18.3 µM
effect on cell cycle [6]: arrested the cell cycle at the G0/G1-phase in a dose-dependent manner
EC50 [7]: 7.7 µM
EC50 [8]: 10.8 µM
EC50 [9]: 45.8 µM
EC50 [10]: 139 µM

SMILES: CCNC(=S)N/N=C/c1ccc(-c2ccc(O)cc2)o1 [PKUMDL-WL-2229, (E)-N-ethyl-2-((5-(4-hydroxyphenyl)furan-2-yl)methylene) hydrazinecarbothioamide]
IC50 [1]: 30.3 ± 4.5 µM

SMILES: NNC(=S)N/N=C/c1ccc(-c2ccc(S(N)(=O)=O)cc2)o1 [PKUMDL-WL-2225, (E)-4-(5-((2-(hydrazinecarbonothioyl) hydrazono)methyl)furan-2-yl) benzenesulfonamide]
IC50 [1]: 38.9 ± 1.2 µM

SMILES: CCNC(=S)N/N=C/c1ccc(-c2ccc([N+](=O)[O-])cc2)o1 [PKUMDL-WL-2228, (E)-N-ethyl-2-((5-(4-nitrophenyl)furan-2-yl)methylene) hydrazinecarbothioamide]
IC50 [1]: 37 ± 2.8 µM

SMILES: COC(=O)c1ccc(-c2ccc(/C=N/NC(=S)Nc3ccc([N+](=O)[O-])cc3)o2)cc1 [PKUMDL-WL-2212, (E)-Methyl 4-(5-((2-((4-nitrophenyl)carbamothioyl) hydrazono)methyl)furan-2-yl) benzoate]
IC50 [1]: 29.8 ± 9.4 µM

SMILES: CCNC(=S)N/N=C\c1ccc(-c2ccc(C(=O)O)c(Cl)c2)o1 [PKUMDL-WL-2201, (Z)-2-chloro-4-(5-((2-(ethylcarbamothioyl) hydrazono)methyl)furan-2-yl) benzoic acid]
inhibitory effects on MDA-MB-468 xenografts (tumor volume) [2]: substantial inhibitory effects
tolerability (body weight) [2]: maintain normal body weight
EC50 [3]: > 200 µM
EC50 [4]: 125 µM
IC50 [1]: 35.7 ± 8.6 µM
EC50 [5]: 167 µM
effect on cell cycle [6]: arrested the cell cycle at the G0/G1-phase in a dose-dependent manner
EC50 [7]: 6.9 µM
EC50 [8]: 10 µM
EC50 [9]: 64.7 µM
EC50 [10]: > 200 µM

Next, values leading:

IC50 [1]: 35.5 ± 1.1 µM
SMILES: CCNC(=S)N/N=C/c1ccc(-c2ccc(C(=O)O)cc2)o1 [PKUMDL-WL-2226, (E)-4-(5-((2-(ethylcarbamothioyl) hydrazono)methyl)furan-2-yl) benzoic acid]

IC50 [1]: 8.9 ± 1.8 µM
SMILES: COC(=O)c1ccc(-c2ccc(/C=N/NC(=S)NN)o2)cc1 [PKUMDL-WL-2220, (E)-Methyl 4-(5-((2-(hydrazinecarbonothioyl) hydrazono)methyl)furan-2-yl) benzoate]

IC50 [1]: 16.7 ± 1.6 µM
SMILES: NNC(=S)N/N=C/c1ccc(-c2ccc(C(=O)O)cc2)o1 [PKUMDL-WL-2222, (E)-4-(5-((2-(hydrazinecarbonothioyl) hydrazono)methyl)furan-2-yl) benzoic acid]
